Results as given in ChEMBL document CHEMBL2046360, “Hydrophobic Interactions Improve Selectivity to ERα for Ben-zothiophene SERMs” (ACS Med Chem Lett, 2012).
Calls of active or inactive are those of the source. The calls are words filed in the database; no cut-off is given here.

How the values were obtained:
Estrogen receptor [1] = target: T1, Estrogen receptor (Homo sapiens, UniProt P03372); assay: Displacement of [3H]estradiol from ERalpha after 4 hrs by scintillation counting
T1 sequence (P03372 whole entry): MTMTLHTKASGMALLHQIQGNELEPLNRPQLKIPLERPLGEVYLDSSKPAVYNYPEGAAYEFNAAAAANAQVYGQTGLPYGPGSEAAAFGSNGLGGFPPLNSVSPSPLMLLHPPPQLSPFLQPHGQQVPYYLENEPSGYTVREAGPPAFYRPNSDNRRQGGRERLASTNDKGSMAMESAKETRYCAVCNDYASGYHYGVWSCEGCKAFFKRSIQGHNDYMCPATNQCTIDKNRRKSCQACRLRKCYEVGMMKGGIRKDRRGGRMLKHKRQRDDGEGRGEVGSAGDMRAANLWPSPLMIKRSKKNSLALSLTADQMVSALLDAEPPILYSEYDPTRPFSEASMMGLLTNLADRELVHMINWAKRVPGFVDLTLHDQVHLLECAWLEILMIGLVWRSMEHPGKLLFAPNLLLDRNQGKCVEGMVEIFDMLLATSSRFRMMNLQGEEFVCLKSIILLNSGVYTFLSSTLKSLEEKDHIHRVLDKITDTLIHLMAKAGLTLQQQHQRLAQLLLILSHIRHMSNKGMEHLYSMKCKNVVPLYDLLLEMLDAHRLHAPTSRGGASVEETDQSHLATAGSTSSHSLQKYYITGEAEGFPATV

Rattus norvegicus [2] = assay: […] Sprague-Dawley rat assessed as reduction of bone loss by measuring volumetric bone mineral density administered qd after 4 days post ovariectomy measured after 5 weeks; format: functional, organism-based
Estrogen receptor beta = Estrogen receptor beta (Homo sapiens, UniProt Q92731); assay: Displacement of [3H]estradiol from ERbeta after 4 hrs by scintillation counting
Rattus norvegicus [3] = assay: AUC (0 to 24 hrs) in rat at 10 mg/kg, po; format: ADME, organism-based, Plasma; set-up: time < 24 hr, dose 10 mg/kg, route oral; settings: in vivo
[4] = Selectivity ratio of Ki for ERbeta to Ki for ERalpha
Estrogen receptor [5] = target: T1, Estrogen receptor; assay: Binding affinity to ERalpha ligand binding domain
MCF7 = assay: Antiproliferative activity against human MCF7 cells after 48 hrs by [3H]-thymidine incorporation assay; format: functional, cell-based
Rattus norvegicus [6] = assay: Antiestrogenic activity in young Sprague-Dawley rat assessed as inhibition of estrogen-induced uterine hypertrophy at 0.01 to 1 mg/kg, po for 3 days; format: functional, organism-based
[7] = Cmax in rat at 10 mg/kg, po; format: ADME, organism-based; set-up: dose 10 mg/kg, route oral; settings: in vivo

Estrogen receptor beta, sequence (Q92731 whole entry): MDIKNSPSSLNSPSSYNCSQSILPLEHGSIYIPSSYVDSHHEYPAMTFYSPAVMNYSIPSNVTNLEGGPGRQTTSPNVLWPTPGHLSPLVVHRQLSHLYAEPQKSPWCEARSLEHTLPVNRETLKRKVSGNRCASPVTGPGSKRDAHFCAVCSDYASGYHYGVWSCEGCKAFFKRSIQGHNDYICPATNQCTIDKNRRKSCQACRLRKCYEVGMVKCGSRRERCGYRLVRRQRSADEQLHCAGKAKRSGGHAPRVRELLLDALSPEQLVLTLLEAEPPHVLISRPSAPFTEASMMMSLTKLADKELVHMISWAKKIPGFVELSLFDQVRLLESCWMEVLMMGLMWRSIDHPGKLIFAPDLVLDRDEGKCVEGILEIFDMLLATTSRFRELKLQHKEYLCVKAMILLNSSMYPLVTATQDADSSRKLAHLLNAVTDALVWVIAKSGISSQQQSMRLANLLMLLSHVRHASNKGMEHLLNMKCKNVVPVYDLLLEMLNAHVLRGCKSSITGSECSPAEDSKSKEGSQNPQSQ

Ki (Estrogen receptor [1]): 0.25 nM | Ki (Estrogen receptor beta): 35 nM | AUC (Rattus norvegicus [3]): 2337 ng·h/mL | Ratio Ki [4]: 140 | Ki (Estrogen receptor [5]): 0.25 nM | IC50 (MCF7): 33 nM | Cmax [7]: 210 ng/mL
Structure (SMILES): CCCCc1ccc(-c2sc3cc(O)ccc3c2C(=O)c2ccc(OCCN3CCCCC3)cc2)cc1
Activity (Rattus norvegicus [2]): Dose-dependent effect | inhibition (Rattus norvegicus [6]): Active
